Experiment [1] deals with CypD (Homo sapiens, UniProt P30405). Briefly: CypD PPIase activity, chymotrypsin-coupled assay. It is filed as biochemical. Conditions: Table 1.
The test system of experiment [2] is isolated mouse liver mitochondria. Put plainly: Calcium retention capacity (CRC) assay in isolated liver mitochondria. It is filed as biochemical.
For experiment [3] the test system is unchanged. Put plainly: Ca2+-induced mitochondrial swelling assay. It is filed as biochemical. The conditions noted are these: energised isolated mouse liver mitochondria.
Experiment [4] has as its system AML-12 cells. Put plainly: mPTP opening, CoCl2-calcein AM fluorescence-quenching assay, hypoxia/reoxygenation. It is filed as cell-based, mouse. Conditions: 1 μM; 4 h hypoxia, 1 h reoxygenation. The method, then: We next evaluated the ability of compounds C105SR and C110SR to inhibit mPTP opening in cells. The hepatocyte cell line AML-12 was subjected to 4 h of hypoxia followed by 1 h of reoxygenation and mPTP opening was monitored using the CoCl2-calcein-acetoxymethyl ester (AM) fluorescence-quenching method.[19] Calcein-AM is a membrane permeable fluorophore which passively diffuses in all subcellular compartments including mitochondria. In the cell, the AM group of the fluorophore is cleaved by ubiquitous intracellular esterases, generating a hydrophilic product that is retained within the cell. The cells are then loaded with the divalent cobalt cation (Co^2+), which quenches calcein fluorescence in all subcellular compartments except the mitochondrial matrix, because the inner mitochondrial membrane is impermeable to cobalt. However, when mPTP is open, cobalt enters mitochondria and quenches mitochondrial calcein fluorescence. […]
Hypoxia/reoxygenation (H/R) in vitro model. AML-12 mouse hepatocyte line was obtained from American Type Culture Collection (ATCC) and maintained in DMEM/F12 culture medium at 37°C with 5% CO2. HepaRG human hepatocyte line was obtained from American Type Culture Collection (ATCC) and maintained in William’S E culture medium at 37°C with 5% CO2.When indicated, cells were incubated in phosphate buffered saline at 37°C in a hypoxic chamber filled with 94% N2, 1% O2, 5% CO2 for 4 h to mimic ischemic conditions. Then, cells were transferred to a CO2 incubator at 37°C in regular DMEM/F12 culture medium for 1 or 2 h under normoxic conditions (74% N2, 21% O2, 5% CO2). SMCypIs or vehicle (DMSO) were added during the hypoxia period, during the reoxygenation period, or during both. CsA and ALV were used as positive controls for hepatic protection against H/R injury.
Monitoring of mPTP opening. mPTP opening was monitored in AML-12 cells using the CoCl2-calcein AM fluorescence-quenching assay. Cells were loaded with 1 µM calcein-AM (green) for 20 min. Then, 1 mM CoCl2 was added and cells were incubated for another 10 min. Cells were washed and subjected to 4 h of hypoxia followed by 1 h of reoxygenation. Calcein fluorescence was measured using a spectrofluorimeter at excitation and emission wavelengths of 485 nm and 535 nm, respectively. Images were acquired using a standard inverted fluorescence microscope (Zeiss Axio, […]
media during the entire H/R period. Images shown are representative images of 12-18 images. […]
Optical density of purple formazan product was measured at 550 nm. […]

The subject of experiment [5] is AML-12 cells. Put plainly: Propidium iodide staining, hypoxia/reoxygenation. The conditions noted are these: 1 μM; 4 h hypoxia, 1 h reoxygenation. It is filed as cell-based, mouse. The method, then:
To assess whether the new SMCypIs reduced mPTP opening-induced cell death, propidium iodide fluorescence was measured in cells that had been co-loaded with calcein-AM. As expected, the loss of calcein fluorescence in cells subjected to hypoxia/reoxygenation was associated with enhanced propidium iodide fluorescence (Fig. 3A and 3C).
Calcium retention capacity (CRC) assay. Isolated liver mitochondria (1 mg/mL) energized with 5 mM glutamate/malate were incubated in a buffer allowing respiration of mitochondria (100 mM KCl, 50 mM sucrose, 10 mM HEPES, 5 mM KH2PO4, pH 7.4 at 30°C) supplemented with 1 µM calcium green 5N fluorescent probe. Mitochondria were pulsed with sequential additions of CaCl2 (20 µM) until mPTP opening along with rapid calcium release happened. The calcium concentration in the extra-mitochondrial medium was monitored with a Jasco FP-6300 spectrofluorimeter (Jasco, Bouguenais, France) at 506 nm excitation and 532 nm emission wavelengths.
Mitochondrial swelling assay. Mitochondrial swelling was assessed by measuring changes in absorbance at 540 nm using a Jasco V-530 spectrophotometer (Bouguenais, France) equipped with magnetic stirring and thermostatic control (30°C). […]
Monitoring of mPTP opening. mPTP opening was monitored in AML-12 cells using the CoCl2-calcein AM fluorescence-quenching assay. […] Calcein fluorescence was measured using a spectrofluorimeter at excitation and emission wavelengths of 485 nm and 535 nm, respectively. Images were acquired using a standard inverted fluorescence microscope (Zeiss Axio, […]
Propidium iodide staining. […] Fluorescence was measured using an Infinite 200 Pro fluorescent plate reader (Tecan, Mannedorf, Switzerland) at excitation and emission wavelengths of 533 nm and 617 nm, respectively. Images were acquired using a standard inverted fluorescence microscope (Zeiss Axio, Oberkochen, Germany). […]
Cell viability assays. Lactate dehydrogenase (LDH) release in culture medium was assessed using the commercially non-radioactive CytoTox-96 kit (Promega, Madison, Wisconsin) following the manufacturer’s instructions. […]

This is an account of results in publication PMC10582583, “The novel cyclophilin inhibitor C105SR reduces hepatic ischaemia–reperfusion injury via mitoprotection” (JHEP Reports, 2023).

CypD, sequence (P30405 30-207): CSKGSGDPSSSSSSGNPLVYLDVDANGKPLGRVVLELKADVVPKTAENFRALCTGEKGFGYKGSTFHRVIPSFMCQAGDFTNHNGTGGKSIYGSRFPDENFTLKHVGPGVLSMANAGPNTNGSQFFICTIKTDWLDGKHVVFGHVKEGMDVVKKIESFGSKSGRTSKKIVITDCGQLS

Turning to `C/C=C/C[C@@H](C)[C@@H](O)[C@H]1C(=O)N[C@@H](CC)C(=O)N(C)[C@H](C)C(=O)N(CC)[C@@H](C(C)C)C(=O)N[C@@H](C(C)C)C(=O)N(C)[C@@H](CC(C)C)C(=O)N[C@@H](C)C(=O)N[C@H](C)C(=O)N(C)[C@@H](CC(C)C)C(=O)N(C)[C@@H](CC(C)C)C(=O)N(C)[C@@H](C(C)C)C(=O)N1C` [ALV, alisporivir, reference compound], the IC50 – broadly, the concentration that inhibits the measured activity by half – in experiment [1] amounted to 30 ± 5 nM; in experiment [3], 50 ± 20 nM. In addition, in experiment [2] (compound at 1 μM, basal 160 ± 8), the “amount of Ca2+ required to open mPTP (CRC)” value is 373 ± 59 nmol Ca2+/mg of mitochondrial. Also, in experiment [2] (isolated mouse liver mitochondria), the EC50 (commonly the concentration giving half of the maximal effect) came to 80 ± 20 nM. Besides, the “prevention of mPTP opening (loss of calcein fluorescence)” value in experiment [4] was “substantially prevented”. Moreover, in experiment [5], the propidium iodide fluorescence result is given as “low propidium iodide fluorescence”.
